Tests used:
Ctenocephalides felis = Ctenocephalides felis oral (CTECFE); type: in vivo; details: 100 ppm in citrated cattle blood, after 2 days
Protocol: Solvent: 1 part by weight of dimethyl sulphoxide To produce a suitable preparation of active compound, 10 mg of active compound are mixed with 0.5 ml of dimethyl sulphoxide. One part of the concentrate is diluted with citrated cattle blood, and the desired concentration is prepared. 20 unfed adult fleas (Ctenocephalides felis) are placed into a chamber whose top and bottom ends are closed with gauze. A metal cylinder whose bottom end is closed with parafilm is placed onto the chamber. The cylinder contains the blood/active compound preparation, which can be taken up by the fleas through the parafilm membrane. After 2 days, the kill in % is determined. 100% means that all fleas have been killed; 0% means that none of the fleas have been killed.

[1] = logP by HPLC on reversed-phase columns (C 18), EU Guideline 79/831 Annex V.A8; type: physicochemical; details: for chromatographic logP: reversed-phase HPLC column (C 18)
Lucilia cuprina larvae = experiment: Lucilia cuprina test (LUCICU); type: in vivo; details: 100 ppm, treated horse meat, after 2 days
Protocol: Solvent: Dimethyl Sulphoxide To produce a suitable preparation of active compound, 10 mg of active compound are mixed with 0.5 ml of dimethyl sulphoxide, and the concentrate is diluted with water to the desired concentration. Containers containing horse meat treated with the active compound preparation of the desired concentration are populated with Lucilia cuprina larvae. After 2 days, the kill in % is determined. 100% means that all larvae have been killed; 0% means that none of the larvae have been killed.

Boophilus microplus = Boophilus microplus test (BOOPMI injection); type: in vivo; details: 20 μg/animal, injected into the abdomen, after 7 days
Protocol: Solvent: Dimethyl Sulphoxide To produce a suitable preparation of active compound, 10 mg of active compound are mixed with 0.5 ml of solvent, and the concentrate is diluted with water to the desired concentration. The active compound solution is injected into the abdomen (Boophilus microplus) and the animals are transferred into dishes and stored in a climatized room. The activity is monitored for deposition of fertile eggs. After 7 days, the activity in % is determined. 100% means that none of the ticks has laid fertile eggs.

[2] = test system: larvae of the mustard beetle (Phaedon cochleariae); experiment: Phaedon test (PHAECO spray treatment); type: in vivo; details: after 7 days
Protocol: (§1) Solvents: 78.0 parts by weight of acetone • • 1.5 parts by weight of dimethyl formamide Emulsifier: 0.5 part by weight of alkylaryl polyglycol ether To produce a suitable preparation of active compound, 1 part by weight of active compound is mixed with the stated amounts of solvent and emulsifier, and the concentrate is diluted with emulsifier-containing water to the desired concentration. Discs of Chinese cabbage leaves (Brassica pekinensis) are sprayed with an active compound preparation of the desired concentration and, after drying, populated with larvae of the mustard beetle (Phaedon cochleariae). After 7 days, the activity in % is determined. 100% means that all beetle larvae have been killed; 0% means that none of the beetle larvae have been killed. The test was carried out and evaluated as described in Example B.4.

[3] = test system: caterpillars of the army worm (Spodoptera frugiperda); experiment: Spodoptera frugiperda test (SPODFR spray treatment); type: in vivo; details: after 7 days
Protocol: as §1, with “maize” for “Chinese cabbage”, “(Zea mays)” for “(Brassica pekinensis)”, “caterpillars” for “larvae”, “army worm (Spodoptera frugiperda).” for “mustard beetle (Phaedon cochleariae).”, “caterpillars” for “beetle larvae”, “B.5.” for “B.4.”

adult Musca domestica = experiment: Musca domestica test (MUSCDO); type: in vivo; details: treated sponge
Protocol: Solvent: Dimethyl sulphoxide To prepare a suitable preparation of active compound, 10 mg of active component are mixed with 0.5 ml of dimethyl sulphoxide, and the concentrate is diluted with water to the desired concentration. Vessels containing a sponge which had been treated with the active compound preparation of the desired concentration are populated with adult Musca domestica. After the desired period of time, the kill in % is determined. 100% means that all flies have been killed; 0% means that none of the flies have been killed.

[4] = * LC-MS in the acidic range, pH 2.7, 0.1% aqueous formic acid and acetonitrile
[5] = ** LC-MS in the neutral range, pH 7.8, 0.001 molar aqueous ammonium bicarbonate and acetonitrile
[6] = pH 7.8, ** LC-MS in the neutral range, pH 7.8, 0.001 molar aqueous ammonium bicarbonate and acetonitrile

SMILES	logP [1, 4]	logP [1, 5]	kill (Ctenocephalides felis) [%]	kill (Lucilia cuprina larvae) [%]	activity (no deposition of fertile eggs) (Boophilus microplus) [%]	activity (beetle larvae killed) ([2]; 100 g/ha) [%]	further results
CN(C)C=Nc1c(-c2cc(Cl)cc(C(F)(F)F)c2)c(C(F)(F)F)nn1-c1ncccn1 [Example 1-2]	3.89*	3.84**;	100	100	95	100	–
CN(C)C=Nc1c(-c2ccc(Cl)c(Cl)c2)c(C(F)(F)F)nn1-c1ncccn1 [Example 1-3]	3.37*	–	100	100	100	100	–
CN(C)C=Nc1c(-c2ccc(Cl)cc2)c(C(F)(F)Cl)nn1-c1ncccn1 [Example 1-4]	2.8*	–	–	–	–	100	–
COc1ccc(-c2c(C(F)(F)F)nn(-c3ncccn3)c2N=CN(C)C)cc1 [Example 1-5]	1.87*	–	–	–	100	–	–
Cc1cnc(-n2nc(C(F)(F)F)c(-c3ccc(Cl)c(Cl)c3)c2N=CN(C)C)nc1 [Example 1-6]	3.58*	–	–	–	–	–	–
Cc1nn(-c2ncccn2)c(N=CN(C)C)c1-c1ccc(Cl)cc1 [Example 1-7]	1.09*	–	–	–	–	100	–
CN(C)C=Nc1c(-c2cccc(Cl)c2)c(C(F)(F)F)nn1-c1ncccn1 [Example 1-8]	2.65*	–	–	–	–	100	–
CN(C)/C=N/c1c(-c2cc(Cl)cc(Br)c2)c(C(F)(F)F)nn1-c1ncccn1 [Example 1-9, N′-[4-(3-bromo-5-chlorophenyl)-1-(pyrimidin-2-yl)-3-(trifluoromethyl)-1H-pyrazol-5-yl]-N,N-dimethylimidoformamide]	–	–	100	100	100	100	activity (caterpillars killed) ([3]; 100 g/ha): 100%; chromatographic logP ([1]; pH 2.7, * LC-MS in the acidic range, pH 2.7, 0.1% aqueous formic acid and acetonitrile): 3.71
CC(C)O/C=N/c1c(-c2cc(Cl)cc(C(F)(F)F)c2)c(C(F)(F)F)nn1-c1ncccn1 [Example 1-13, isopropyl {4-[3-chloro-5-(trifluoromethyl)phenyl]-1-(pyrimidin-2-yl)-3-(trifluoromethyl)-1H-pyrazol-5-yl}imidoformate]	–	–	95	100	100	100	activity (caterpillars killed) ([3]; 100 g/ha): 100%; chromatographic logP [1, 6]: 4.88; kill (adult Musca domestica; 20 ppm): 100%
CCOC(C)=Nc1c(-c2cc(Cl)cc(C(F)(F)F)c2)c(C(F)(F)F)nn1-c1ncccn1 [Example 1-14]	–	5.01**	90	100	80	100	kill (adult Musca domestica; 100 ppm): 80%
FC(F)(F)c1cc(Cl)cc(-c2c(C(F)(F)F)nn(-c3ncccn3)c2N=Cc2ccc(Cl)cc2)c1 [Example 1-16]	–	5.53**	–	–	100	100	activity (beetle larvae killed) ([2]; 20 g/ha): 100%
FC(F)C(F)(F)c1nn(-c2ncccn2)c(N=Cc2ccccc2)c1-c1cc(Cl)cc(C(F)(F)F)c1 [Example 1-19]	–	4.86**	100	100	100	100	activity (caterpillars killed) ([3]; 100 g/ha): 100%; kill (adult Musca domestica; 100 ppm): 100%
FC(F)C(F)(F)c1nn(-c2ncccn2)c(N=Cc2ccc(Cl)cc2)c1-c1cc(Cl)cc(C(F)(F)F)c1 [Example 1-20]	–	5.37**	95	100	100	100	activity (caterpillars killed) ([3]; 100 g/ha): 100%; kill (adult Musca domestica; 100 ppm): 100%
FC(F)(F)c1cc(Cl)cc(-c2c(C(F)(F)F)nn(-c3ncccn3)c2N=Cc2ccccc2Br)c1 [Example 1-31]	–	5.64**	90	100	100	100	kill (adult Musca domestica; 20 ppm): 90%
FC(F)(F)c1nn(-c2ncccn2)c(N=Cc2ccccc2)c1-c1cc(Br)c2c(c1)CCO2 [Example 1-32]	–	4.11**	100	100	100	100	–
FC(F)(F)c1cc(Cl)cc(-c2c(C(F)(F)F)nn(-c3ncccn3)c2N=Cc2cccc(Br)c2)c1 [Example 1-39]	–	–	80	100	100	100	kill (adult Musca domestica; 100 ppm): 100%
COc1nccnc1-n1nc(C(F)(F)F)c(-c2cc(Cl)c(Cl)c(Cl)c2)c1/N=C/c1ccccc1 [Example 2-15, 1-(3-methoxypyrazin-2-yl)-N-phenylmethylene-4-(3,4,5-trichlorophenyl)-3-(trifluoromethyl)-1H-pyrazol-5-amine]	–	–	90	100	100	–	chromatographic logP [1, 6]: 6.03
FC(F)(F)c1cc(Cl)cc(-c2c(C(F)(F)F)nn(-c3ncccn3)c2NCc2ccccc2)c1 [compound (XX), reference compound]	–	–	–	–	–	–	activity (caterpillars killed) ([3]; 20 g/ha): 0%; activity (beetle larvae killed) ([2]; 4 g/ha): 0%
FC(F)(F)c1cc(Cl)cc(-c2c(C(F)(F)F)nn(-c3ncccn3)c2NCc2ccc(Cl)cc2)c1 [compound (XXIII), reference compound]	–	–	–	–	–	–	activity (beetle larvae killed) ([2]; 20 g/ha): no activity

The next lines start with results.

logP [1, 4]	logP [1, 5]	SMILES	kill (Ctenocephalides felis) [%]	kill (Lucilia cuprina larvae) [%]	activity (no deposition of fertile eggs) (Boophilus microplus) [%]	activity (beetle larvae killed) ([2]; 100 g/ha) [%]	further results
3.71	–	COC=Nc1c(-c2ccc(Cl)c(C(F)(F)F)c2)c(C(F)(F)F)nn1-c1ncccn1 [Example 1-91]	–	–	–	–	–
3.47*	–	CN(C)C=Nc1c(-c2ccc(Cl)cc2)c(C(F)(F)F)nn1-c1ncc(Cl)cn1 [Example 1-108]	–	–	–	–	–
4.52*	–	COc1nccnc1-n1nc(C(F)(F)F)c(-c2cc(Cl)cc(C(F)(F)F)c2)c1N=CN(C)C [Example 2-1]	80	–	–	–	–
4.86*	–	CCOc1nccnc1-n1nc(C(F)(F)F)c(-c2cc(Cl)cc(C(F)(F)F)c2)c1N=CN(C)C [Example 2-2]	–	–	–	–	–
5.17*	–	CC(C)Oc1nccnc1-n1nc(C(F)(F)F)c(-c2cc(Cl)cc(C(F)(F)F)c2)c1N=CN(C)C [Example 2-3]	–	–	–	–	–
4.32*	–	CN(C)C=Nc1c(-c2cc(Cl)cc(C(F)(F)F)c2)c(C(F)(F)F)nn1-c1cnccn1 [Example 2-4]	–	–	–	–	–
–	4.5**	COc1ccc(C=Nc2c(-c3cc(Cl)c4c(c3)OCO4)c(C(F)(F)F)nn2-c2nccnc2OC)cc1 [Example 2-5]	100	100	100	–	–
–	5.56**	COc1nccnc1-n1nc(C(F)(F)F)c(-c2cc(Cl)cc(C(F)(F)F)c2)c1N=Cc1ccccc1 [Example 2-9]	90	100	100	100	kill (adult Musca domestica; 20 ppm): 100%
–	5.29**	COc1ccc(C=Nc2c(-c3cc(Cl)cc(C(F)(F)F)c3)c(C(F)(F)C(F)F)nn2-c2nccnc2OC)cc1 [Example 2-10]	–	–	–	–	–
–	4.41**	COc1ccc(C=Nc2c(-c3cc(Cl)c4c(c3)OCO4)c(C(F)(F)C(F)F)nn2-c2nccnc2OC)cc1 [Example 2-12]	–	–	–	100	activity (caterpillars killed) ([3]; 100 g/ha): 100%
